Results: US20240181007A1, “COMPOSITIONS AND METHODS FOR TREATING PULMONARY HYPERTENSION” (Acceleron Pharma Inc., priority 2021, published 2024)

System: Obese ZSF1-SU rats
Assay: HFpEF induced PH rat model, obese ZSF1 rats challenged with semaxanib (Example 13)
Assay type: in vivo
Conditions: 5 mpk s.c. twice weekly for 8 weeks from day 64 after semaxanib, relative to Obese ZSF1-SU/Veh
Method: The effects of an ActRIIA-mFc fusion polypeptide (SEQ ID NO: 56) was examined in a rat model of left ventricular diastolic dysfunction (also referred to as HFpEF) group 2 (subgroup 2.2) pulmonary hypertension (PH). In this model, ZSF1-Lepr^faLepr^cp/Crl rats were challenged with semaxanib (SU5416) to induce HFpEF-PH.
Twenty ZSF1 Lepr^faLepr^cp/Crl male […] (8 wks old) and ten lean rats were subcutaneously administered with a single dose of semaxanib (100 mg/kg) at day 0, and ten lean rats were included as normal control. Eight weeks after semaxanib (SU5416) treatment, twenty ZSF1 Lepr^faLepr^cp/Crl rats were randomized into two groups: i) ten rats were injected subcutaneously with vehicle control (phosphate buffered saline (PBS)), twice weekly for 8 weeks starting from day 64 after semaxanib treatment, “Obese ZSF1 Veh”; and ii) ten rats were injected subcutaneously with ActRIIA-mFc at a dose of 5 mpk twice weekly for 8 weeks starting from day 64 after semaxanib treatment, “Obese ZSF1 ActRIIA-mFc.” At the end of the study, echocardiography and pressure-volume catheter were performed to measure left and right ventricular remodeling and functional changes before animals were euthanized for heart and lung collection.
Prior to euthanization, in vivo cardiac function was assessed by transthoracic echocardiography (Acuson P300, 18 MHz linear transducer: Siemens) in lightly anesthetized rats as described. Echocardiographic assessments were conducted at week 8 (before therapy with ActRIIA-mFc or vehicle) and week 15 (after therapy) in each rat. From left ventricle short axis view, M-mode echocardiogram was acquired to measure interventricular septal thickness at end diastole (IVSd), left ventricular posterior wall thickness at end diastole (LVPWd), left ventricular end diastolic diameter (LVEDD), and left ventricular end systolic diameter (LVESD). Left ventricular mass (LVM) was assessed by the equation: 1.05 [(LVEDD+LVPTD+IVSd)^3-LVEDD^3]. Early diastolic filling peak velocity (E), early diastolic mitral annular velocity (E′), and isovolumetric relaxation time (IVRT) were measured from the medial or septal wall at the mitral valve level from tissue Doppler image. LV diastolic function was assessed by measuring the E/E′ ratio and IVRT. Pulmonary arterial acceleration time (PAAT), a parameter of right ventricular function, was measured. Tricuspid annular plane systolic excursion (TAPSE), a parameter of global right ventricular function, was also measured. RV free wall thickness (RVFWT) was measured using M-mode in a modified parasternal long-axis view through the aortic valve. Pulmonary artery acceleration time (PAAT) was measured as the time from start to peak velocity of blood flow in the lumen of the main pulmonary artery distal to the pulmonary valve as obtained from the pulse-wave doppler recording.
Sixteen weeks after semaxanib treatment, rats were anesthetized with ketamine (100 mg/kg) and xylazine (5 mg/kg) at the end of the experiment to evaluate cardiac and pulmonary hemodynamics. The respiration was supported by a small animal ventilator. Thoracotomy was made through 4-5 intercostal space, and the heart was exposed. […] Ventricular pressure and volume were calculated with LabChart 7 software. […] After finishing left ventricular measurements, the catheter was advanced to the aorta, arterial blood systolic and diastolic pressure was detected. […] Similarly, right atrial pressure was measured by moving the catheter from the right ventricle into atrium. […]

In the case of “ActRIIA-mFc: ActRIIA-mFc fusion polypeptide (SEQ ID NO: 56); extracellular domain fused to murine IgG2a Fc domain with a linker”, the PAAT (FIG. 56) is reported as “significantly increased PAAT”, the “right ventricular systolic pressure (RVSP)” value (FIG. 57) is reported as “significantly reduced right ventricular systolic pressure” and the RVWT (FIG. 58) is reported as “significantly reduced elevated RVWT”. The TAPSE (FIG. 59) was “increased TAPSE” and the “Fulton index (RV/(LV+S))” value (FIG. 60) was “decreased Fulton index”.
